In patent publication US10239832B2, “N-(1-hydroxy-3-(pyrrolidinyl)propan-2-yl)pyrrolidine-3-carboxamide derivatives as glucosylceramide synthase inhibitors” (BIOMARIN PHARMACEUTICAL INC., priority 2013, dated 2019):

target: T1, GCS (Canis lupus familiaris, UniProt A0A8I3MXG6); assay: GCS enzymatic assay (MDCK cell lysate, NBD-ceramide to glucosylceramide, LC/MS); type: biochemical, canine; conditions: Table 2; class symbols A, B, C; the table does not say which of the assays; read-out: Data Range (IC50 values)
T1 construct: endogenous in cells; host or cells: MDCK (Madin-Darby canine kidney) cells, whole-cell lysate
T1 sequence (A0A8I3MXG6 1-394): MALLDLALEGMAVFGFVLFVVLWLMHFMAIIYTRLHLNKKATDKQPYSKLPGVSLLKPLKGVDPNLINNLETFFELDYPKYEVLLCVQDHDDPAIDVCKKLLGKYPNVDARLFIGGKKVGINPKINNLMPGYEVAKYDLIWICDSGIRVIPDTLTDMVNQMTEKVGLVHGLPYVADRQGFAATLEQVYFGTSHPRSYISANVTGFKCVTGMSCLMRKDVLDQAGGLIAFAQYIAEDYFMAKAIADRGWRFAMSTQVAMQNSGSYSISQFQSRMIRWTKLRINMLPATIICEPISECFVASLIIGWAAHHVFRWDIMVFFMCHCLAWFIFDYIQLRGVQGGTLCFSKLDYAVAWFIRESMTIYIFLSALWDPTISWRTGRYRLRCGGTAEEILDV
In short: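 IC50 or percent inhibition came from LC/MS/MS (ESI+, MRM) of NBD-ceramide and glucosylceramide, with tolbutamide as internal standard. The reaction used MDCK (canine) cell lysate as the enzyme source and was ended with acetonitrile. Mock wells received 0.1% DMSO.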

IC50 [µM] | Compound
0.001 to 0.03 | O=C(N[C@H](CN1CCCC1)[C@H](O)c1cc(F)c2c(c1)OCCO2)[C@@H]1CCN(c2ccc(Cl)c(Oc3ccccn3)c2)C1 [Compound 105, (R)-1-(4-chloro-3-(pyridin-2-yloxy)phenyl)-N-((1R,2R)-1-(8-fluoro-2,3-dihydrobenzo[b][1,4]dioxin-6-yl)-1-hydroxy-3-(pyrrolidin-1-yl)propan-2-yl)pyrrolidine-3-carboxamide]
0.001 to 0.03 | O=C(N[C@H](CN1CCCC1)[C@H](O)c1ccc(OC2CCOCC2)c(Cl)c1)[C@@H]1CCN(c2ccc3ccsc3c2)C1 [Compound 92, (R)-1-(benzo[b]thiophen-6-yl)-N-((1R,2R)-1-(3-chloro-4-((tetrahydro-2H-pyran-4-yl)oxy)phenyl)-1-hydroxy-3-(pyrrolidin-1-yl)propan-2-yl)pyrrolidine-3-carboxamide]
0.001 to 0.03 | O=C(N[C@H](CN1CCC1)[C@H](O)c1cc(F)c2c(c1)OCCO2)C1CCN(c2ccc3cc(F)ccc3c2)C1 (stereo partly drawn) [Compound 47A, N-((1R,2R)-3-(azetidin-1-yl)-1-(8-fluoro-2,3-dihydrobenzo[b][1,4]dioxin-6-yl)-1-hydroxypropan-2-yl)-1-(6-fluoronaphthalen-2-yl)pyrrolidine-3-carboxamide]
0.001 to 0.03 | O=C(N[C@H](CN1CCCC1)[C@H](O)c1ccc(OC2CC2)c(Cl)c1)[C@@H]1CCN(c2ccc3cc(F)ccc3c2)C1 [Compound 84, (R)-N-((1R,2R)-1-(3-chloro-4-cyclopropoxyphenyl)-1-hydroxy-3-(pyrrolidin-1-yl)propan-2-yl)-1-(6-fluoronaphthalen-2-yl)pyrrolidine-3-carboxamide]
0.001 to 0.03 | O=C(N[C@H](CN1CCCC1)[C@H](O)c1ccc2c(c1)OCCO2)C1CCN(c2ccc(F)cc2)C1 (stereo partly drawn) [Compound 24B, N-((1R,2R)-1-(2,3-dihydrobenzo[b][1,4]dioxin-6-yl)-1-hydroxy-3-(pyrrolidin-1-yl)propan-2-yl)-1-(4-fluorophenyl)pyrrolidine-3-carboxamide]
0.03 to 0.1 | O=C(N[C@H](CN1CCCC1)[C@H](O)c1ccc(OC2CC2)c(Cl)c1)[C@@H]1CCN(c2ccc(Cl)c(-c3ccc(F)cc3)c2)C1 [Compound 138, (R)-1-(6-chloro-4′-fluoro-[1,1′-biphenyl]-3-yl)-N-((1R,2R)-1-(3-chloro-4-cyclopropoxyphenyl)-1-hydroxy-3-(pyrrolidin-1-yl)propan-2-yl)pyrrolidine-3-carboxamide]
0.001 to 0.03 | O=C(N[C@H](CN1CCCC1)[C@H](O)c1ccc2c(c1)OCCO2)[C@H]1CCN(c2ccc3cc(Cl)sc3c2)C1 [Compound 76E, (S)-1-(2-chlorobenzo[b]thiophen-6-yl)-N-((1R,2R)-1-(2,3-dihydrobenzo[b][1,4]dioxin-6-yl)-1-hydroxy-3-(pyrrolidin-1-yl)propan-2-yl)pyrrolidine-3-carboxamide]
0.1 to 1 | N#Cc1ccc(N2CC[C@@H](C(=O)N[C@H](CN3CCCC3)[C@H](O)c3ccc(OC4CC4)c(Cl)c3)C2)cc1 [Compound 152, (R)-N-((1R,2R)-1-(3-chloro-4-cyclopropoxyphenyl)-1-hydroxy-3-(pyrrolidin-1-yl)propan-2-yl)-1-(4-cyanophenyl)pyrrolidine-3-carboxamide]
0.03 to 0.1 | N#Cc1ccc(N2CCC(C(=O)N[C@H](CN3CCCC3)C(O)c3ccc(OC4CC4)c(Cl)c3)C2)cc1 (stereo in doubt) [Compound 152C, (R)-N-((1S,2R)-1-(3-chloro-4-cyclopropoxyphenyl)-1-hydroxy-3-(pyrrolidin-1-yl)propan-2-yl)-1-(4-cyanophenyl)pyrrolidine-3-carboxamide]
0.001 to 0.03 | O=C(N[C@H](CN1CCCC1)[C@H](O)c1ccc(SC2CC2)c(Cl)c1)[C@@H]1CCN(c2ccc(Cl)cc2)C1 [Compound 145, (R)-N-((1R,2R)-1-(3-chloro-4-(cyclopropylthio)phenyl)-1-hydroxy-3-(pyrrolidin-1-yl)propan-2-yl)-1-(4-chlorophenyl)pyrrolidine-3-carboxamide]

same assay, conditions: Table 2; class symbols D, E, F, NA (not active); the table does not say which of the assays

Data Range (% inhibition) | Compound
E (50-74% (or less than 75%)) | O=C(N[C@H](CN1CCCC1)[C@H](O)c1ccc2c(c1)OCCO2)C1CCN(c2ccc(Cl)c(Cl)c2)C1 (stereo in doubt) [Compound 8D, (S)-1-(3,4-dichlorophenyl)-N-((1R,2R)-1-(2,3-dihydrobenzo[b][1,4]dioxin-6-yl)-1-hydroxy-3-(pyrrolidin-1-yl)propan-2-yl)pyrrolidine-3-carboxamide]
F (1-49% (or less than 50%)) | O=C(N[C@H](CN1CCCC1)[C@H](O)c1ccc2c(c1)OCCO2)[C@H]1CCN(c2ccnc(OC3CC3)c2)C1 [Compound 56E, (S)-1-(2-cyclopropoxypyridin-4-yl)-N-((1R,2R)-1-(2,3-dihydrobenzo[b][1,4]dioxin-6-yl)-1-hydroxy-3-(pyrrolidin-1-yl)propan-2-yl)pyrrolidine-3-carboxamide]
F (1-49% (or less than 50%)) | O=C(N[C@H](CN1CCCCC1)[C@H](O)c1ccc2c(c1)OCCO2)[C@H]1CCN(c2ccc(Cl)cc2)C1 [Compound 43E, (S)-1-(4-chlorophenyl)-N-((1R,2R)-1-(2,3-dihydrobenzo[b][1,4]dioxin-6-yl)-1-hydroxy-3-(piperidin-1-yl)propan-2-yl)pyrrolidine-3-carboxamide]
F (1-49% (or less than 50%)) | CC(C)Oc1ccc([C@@H](O)[C@@H](CN2CCCC2)NC(=O)[C@H]2CCN(c3ccc(Cl)cc3)C2)cn1 [Compound 29B, (S)-1-(4-chlorophenyl)-N-((1R,2R)-1-hydroxy-1-(6-isopropoxypyridin-3-yl)-3-(pyrrolidin-1-yl)propan-2-yl)pyrrolidine-3-carboxamide]
F (1-49% (or less than 50%)) | O=C(N[C@H](CN1CCCC1)[C@H](O)c1ccc2c(c1)OCCO2)C1CCN(Cc2ccc(Cl)cc2)C1 (stereo partly drawn) [Compound 15C]
F (1-49% (or less than 50%)) | O=C(N[C@H](CN1CCCC1)[C@H](O)c1ccc2c(c1)OCCO2)C1CCN(c2ccc3cc(F)ccc3c2)C1 (stereo in doubt) [Compound 14D, (R)-N-((1R,2R)-1-(2,3-dihydrobenzo[b][1,4]dioxin-6-yl)-1-hydroxy-3-(pyrrolidin-1-yl)propan-2-yl)-1-(6-fluoronaphthalen-2-yl)pyrrolidine-3-carboxamide]
E (50-74% (or less than 75%)) | O=C(N[C@H](CN1CCCC1)[C@H](O)c1ccc2c(c1)OCCO2)C1CCN(c2ccc(Cl)c(OC3CC3)c2)C1 (stereo partly drawn) [Compound 19]
E (50-74% (or less than 75%)) | O=C(N[C@H](CN1CCCC1)[C@H](O)c1ccc(OC2CC2)nc1)[C@@H]1CCN(c2ccc(F)cc2)C1 [Compound 27, (R)-N-((1R,2R)-1-(6-cyclopropoxypyridin-3-yl)-1-hydroxy-3-(pyrrolidin-1-yl)propan-2-yl)-1-(4-fluorophenyl)pyrrolidine-3-carboxamide]
E (50-74% (or less than 75%)) | O=C(N[C@H](CN1CCCC1)[C@H](O)c1cc(F)c2c(c1)OCCO2)[C@H]1CCN(c2ccc3ccsc3c2)C1 [Compound 97C, (S)-1-(benzo[b]thiophen-6-yl)-N-((1R,2R)-1-(8-fluoro-2,3-dihydrobenzo[b][1,4]dioxin-6-yl)-1-hydroxy-3-(pyrrolidin-1-yl)propan-2-yl)pyrrolidine-3-carboxamide]
D (75-100%) | O=C(N[C@H](CN1CCCC1)[C@H](O)c1ccc(OC2CC2)c(Cl)c1)C1CCN(c2ccc(OC(F)(F)F)cc2)C1 (stereo partly drawn) [Compound 10, N-((1R,2R)-1-(3-chloro-4-cyclopropoxyphenyl)-1-hydroxy-3-(pyrrolidin-1-yl)propan-2-yl)-1-(4-(trifluoromethoxy)phenyl)pyrrolidine-3-carboxamide]
F (1-49% (or less than 50%)) | CC1(C)CCc2cc(N3CCC(C(=O)N[C@H](CN4CCCC4)[C@H](O)c4ccc5c(c4)OCCO5)C3)ccc2O1 (stereo partly drawn) [Compound 64, N-((1R,2R)-1-(2,3-dihydrobenzo[b][1,4]dioxin-6-yl)-1-hydroxy-3-(pyrrolidin-1-yl)propan-2-yl)-1-(2,2-dimethylchroman-6-yl)pyrrolidine-3-carboxamide]
F (1-49% (or less than 50%)) | O=C(N[C@H](CN1CCCC1)[C@H](O)c1ccc2c(c1)OCCO2)[C@H]1CCN(c2ccc(OC3CC3)nc2)C1 [Compound 58D, (S)-1-(6-cyclopropoxypyridin-3-yl)-N-((1R,2R)-1-(2,3-dihydrobenzo[b][1,4]dioxin-6-yl)-1-hydroxy-3-(pyrrolidin-1-yl)propan-2-yl)pyrrolidine-3-carboxamide]
E (50-74% (or less than 75%)) | O=C(N[C@H](CN1CCCC1)[C@H](O)c1ccc2c(c1)OCCO2)C1CCN(c2ccc(OC3CC3)c(Cl)c2)C1 (stereo partly drawn) [Compound 20D]

Compound | Data Range (% inhibition)
O=C(N[C@H](CN1CCCC1)[C@H](O)c1ccc(N2CCOCC2)c(Cl)c1)[C@H]1CCN(c2ccc(Cl)cc2)C1 [Compound 74C, (S)-N-((1R,2R)-1-(3-chloro-4-morpholinophenyl)-1-hydroxy-3-(pyrrolidin-1-yl)propan-2-yl)-1-(4-chlorophenyl)pyrrolidine-3-carboxamide] | NA (not active—a negative value was generated for % inhibition)
